Measurements: patent US20210188843A1, “QUINOLINE COMPOUNDS AND THEIR PREPARATION AND USE AS ANTIMALARIAL AGENTS” (The United States of America,as represented by the …, priority 2018, published 2021)
In brackets after ≈: the same amount, converted by molar mass. Like-named read-outs stand apart in the source and are kept apart here.

How the values were obtained:
PAMPA permeability = type: in vitro ADME
[1] = tested on: Asexual parasites of P. falciparum strain 3D7; assay: In vitro drug activity on asexual parasites (SYBR Green assay); type: cell-based; settings: Plasmodium falciparum, P. falciparum 3D7 asexual stage, 72 h, read-out: Asexual EC50
Outline: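 3D7 asexual cultures at 0.5% parasitemia and 2% hematocrit were exposed to drug (DMSO <0.5%) for 72 h under standard culture conditions, in duplicate with no-drug and RBC-only controls. After freeze-thaw lysis, SYBR Green I lysis buffer was added for 30 min at room temperature; fluorescence was read at 490 nm excitation/520 nm emission.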

Solubility pH 7.4 = type: physicochemical; settings: aqueous buffer
[2] = Microsomal stability (rat); type: in vitro ADME; settings: rat microsomes
[3] = Table 3, read-out: Microsomal Stability (rat) T1/2
[4] = Table 1, read-out: Microsomal Stability (rat) T1/2

SMILES: COc1ccc(-c2ccc3ncc4c(c3c2)n(-c2nccnc2C)c(=N)n4C)cc1OC
- Papp (PAMPA permeability; Table 3): 1240 ×10⁻⁶ cm/s
- EC50 ([1]; Table 3): 58 nM
- solubility (Solubility pH 7.4; Table 3): > 63 µg/mL

SMILES: Cc1ccc(-c2ccc3ncc4c(c3c2)n(-c2cncnc2C)c(=N)n4C)cc1
- Papp (PAMPA permeability; Table 3): 1240 ×10⁻⁶ cm/s
- EC50 ([1]; Table 3): 1150 nM
- solubility (Solubility pH 7.4; Table 3): > 38 µg/mL
- half-life [2, 3]: > 30 min

SMILES: Cc1ccc(C#N)cc1-n1c(=N)n(C)c2cnc3ccc(-c4ccccc4)cc3c21 [Compound 35, 3-(2-imino-3-methyl-8-phenyl-2,3-dihydro-1H-imidazo[4,5-c]quinolin-1-yl)-4-methylbenzonitrile]
- Papp (PAMPA permeability; Table 1): 716 ×10⁻⁶ cm/s
- EC50 ([1]; Table 1): 34 nM
- solubility (Solubility pH 7.4; Table 1): > 39 µg/mL
- half-life [2, 4]: > 30 min

SMILES: Cn1c(=N)n(-c2cccc(Cl)c2)c2c3cc(-c4ccc(Cl)cc4)ccc3ncc21 [Compound 28, 1-(3-chlorophenyl)-8-(4-chlorophenyl)-3-methyl-1,3-dihydro-2H-imidazo[4,5-c]quinolin-2-imine]
- Papp (PAMPA permeability; Table 1): 226 ×10⁻⁶ cm/s
- EC50 ([1]; Table 1): 186 nM
- solubility (Solubility pH 7.4; Table 1): < 1 µg/mL
- half-life [2, 4]: > 30 min

SMILES: CCC(=O)/N=c1\n(C)c2cnc3ccc(-c4ccc(Cl)cc4)cc3c2n1-c1cc(C#N)ccc1C [Compound 9, (E)-N-(8-(4-chlorophenyl)-1-(5-cyano-2-methylphenyl)-3-methyl-1,3-dihydro-2H-imidazo[4,5-c]quinolin-2-ylidene)propionamide]
- Papp (PAMPA permeability; Table 1): 526 ×10⁻⁶ cm/s
- EC50 ([1]; Table 1): 38.5 nM
- solubility (Solubility pH 7.4; Table 1): < 1 µg/mL
- half-life [2, 4]: > 30 min

SMILES: Cn1c(=N)n(-c2cccc(O)c2)c2c3cc(-c4ccc(Cl)cc4)ccc3ncc21 [Compound 79, 3-(8-(4-chlorophenyl)-2-imino-3-methyl-2,3-dihydro-1H-imidazo[4,5-c]quinolin-1-yl)phenol]
- Papp (PAMPA permeability; Table 1): 42 ×10⁻⁶ cm/s
- EC50 ([1]; Table 1): 1420 nM
- solubility (Solubility pH 7.4; Table 1): 9.7 µg/mL (≈ 24.2 µM)
- half-life [2, 4]: > 30 min

SMILES: COC(=O)/N=c1\n(C)c2cnc3ccc(-c4ccc(C)cc4)cc3c2n1-c1cc(C#N)c(N2CCN(C)CC2)cc1C [Compound 147, Methyl (E)-(1-(5-cyano-2-methyl-4-(4-methylpiperazin-1-yl)phenyl)-3-methyl-8-(p-tolyl)-1,3-dihydro-2H-imidazo[4,5-c]quinolin-2-ylidene)carbamate]
- Papp (PAMPA permeability; Table 1): 656 ×10⁻⁶ cm/s
- EC50 ([1]; Table 1): 28.4 nM
- solubility (Solubility pH 7.4; Table 1): 4.3 µg/mL (≈ 7.68 µM)
- half-life [2, 4]: 24.4 min

SMILES: Cn1c(=N)n(-c2ccc(N3CCNCC3)c(C#N)c2)c2c3cc(-c4ccc(Cl)cc4)ccc3ncc21 [Compound 49, 5-(8-(4-chlorophenyl)-2-imino-3-methyl-2,3-dihydro-1H-imidazo[4,5-c]quinolin-1-yl)-2-(piperazin-1-yl)benzonitrile]
- Papp (PAMPA permeability; Table 1): 4.9 ×10⁻⁶ cm/s
- EC50 ([1]; Table 1): 58.2 nM
- solubility (Solubility pH 7.4; Table 1): 1 µg/mL (≈ 2.02 µM)
- half-life [2, 4]: > 30 min

SMILES: CCC(=O)/N=c1/ccc2cnc3ccc(-c4ccc(Cl)cc4)cc3c2n1-c1ccc(C(=O)NC2CC2)cc1
- Papp (PAMPA permeability; Table 2): 445 ×10⁻⁶ cm/s
- EC50 ([1]; Table 2): 47.5 nM
- solubility (Solubility pH 7.4; Table 2): < 1 µg/mL
- half-life ([2]; Table 2, read-out: Microsomal Stability (rat) T1/2): 4.8 min

SMILES: COc1ccc(C#N)cc1-n1c(=N)n(C)c2cnc3ccc(-c4ccc(Cl)cc4)cc3c21 [Compound 53, 3-(8-(4-chlorophenyl)-2-imino-3-methyl-2,3-dihydro-1H-imidazo[4,5-c]quinolin-1-yl)-4-methoxybenzonitrile]
- Papp (PAMPA permeability; Table 1): 850 ×10⁻⁶ cm/s
- EC50 ([1]; Table 1): 120 nM
- solubility (Solubility pH 7.4; Table 1): 12.2 µg/mL (≈ 27.7 µM)
- half-life [2, 4]: > 30 min

SMILES: Cc1ccc(C#N)cc1-n1c(=N)n(C)c2cnc3ccc(-c4cccc(F)c4)cc3c21 [Compound 34, 3-(8-(3-fluorophenyl)-2-imino-3-methyl-2,3-dihydro-1H-imidazo[4,5-c]quinolin-1-yl)-4-methylbenzonitrile]
- Papp (PAMPA permeability; Table 1): 852 ×10⁻⁶ cm/s
- EC50 ([1]; Table 1): 47.3 nM
- solubility (Solubility pH 7.4; Table 1): > 40 µg/mL
- half-life [2, 4]: > 30 min

SMILES: Cc1ccc(C#N)cc1-n1c(=N)n(C)c2cnc3ccc(-c4cccc(N)c4)cc3c21 [Compound 38, 3-(8-(3-aminophenyl)-2-imino-3-methyl-2,3-dihydro-1H-imidazo[4,5-c]quinolin-1-yl)-4-methylbenzonitrile]
- Papp (PAMPA permeability; Table 1): 435 ×10⁻⁶ cm/s
- EC50 ([1]; Table 1): 83 nM
- solubility (Solubility pH 7.4; Table 1): > 40 µg/mL
- half-life [2, 4]: > 30 min

SMILES: Cc1ccc(C#N)cc1-n1/c(=N/C(=N)N)n(C)c2cnc3ccc(-c4ccc(F)cc4)cc3c21 [Compound 56, (E)-1-(1-(5-cyano-2-methylphenyl)-8-(4-fluorophenyl)-3-methyl-1,3-dihydro-2H-imidazo[4,5-c]quinolin-2-ylidene)guanidine]
- Papp (PAMPA permeability; Table 1): 1.7 ×10⁻⁶ cm/s
- EC50 ([1]; Table 1): 1460 nM
- solubility (Solubility pH 7.4; Table 1): > 44 µg/mL
- half-life [2, 4]: > 30 min

SMILES: COc1ccc(-c2ccc3ncc4c(c3c2)n(-c2cncnc2)c(=N)n4C)cc1OC
- Papp (PAMPA permeability; Table 3): 510 ×10⁻⁶ cm/s
- EC50 ([1]; Table 3): 17 nM
- solubility (Solubility pH 7.4; Table 3): > 61 µg/mL
- half-life [2, 3]: > 30 min

SMILES: Cn1c(=N)n(-c2cccc(CN3CCNCC3)c2)c2c3cc(-c4ccc(Cl)cc4)ccc3ncc21 [Compound 85, 8-(4-chlorophenyl)-3-methyl-1-(3-(piperazin-1-ylmethyl)phenyl)-1,3-dihydro-2H-imidazo[4,5-c]quinolin-2-imine]
- Papp (PAMPA permeability; Table 1): 11.2 ×10⁻⁶ cm/s
- EC50 ([1]; Table 1): 702 nM
- solubility (Solubility pH 7.4; Table 1): > 48 µg/mL
- half-life [2, 4]: > 30 min

SMILES: Cc1ccc(C#N)cc1-n1c(=N)n(C)c2cnc3ccc(-c4ccc(OCCCN(C)C)nc4)cc3c21 [Compound 106, 3-(8-(6-(3-(dimethylamino)propoxy)pyridin-3-yl)-2-imino-3-methyl-2,3-dihydro-1H-imidazo[4,5-c]quinolin-1-yl)-4-methylbenzonitrile]
- Papp (PAMPA permeability; Table 1): 1.2 ×10⁻⁶ cm/s
- EC50 ([1]; Table 1): 140 nM
- solubility (Solubility pH 7.4; Table 1): > 49 µg/mL
- half-life [2, 4]: > 30 min

SMILES: Cc1ccc(C#N)cc1-n1c(=N)n(C)c2cnc3ccc(-c4ccc(Cl)cn4)cc3c21 [Compound 44, 3-(8-(5-chloropyridin-2-yl)-2-imino-3-methyl-2,3-dihydro-1H-imidazo[4,5-c]quinolin-1-yl)-4-methylbenzonitrile]
- Papp (PAMPA permeability; Table 1): 1560 ×10⁻⁶ cm/s
- EC50 ([1]; Table 1): 119 nM
- solubility (Solubility pH 7.4; Table 1): > 42 µg/mL
- half-life [2, 4]: > 30 min

SMILES: CC(=O)N1CCN([C@H]2C[C@H](n3c(=N)n(C)c4cnc5ccc(-c6ccc(Cl)cc6)cc5c43)C2)CC1 [Compound 129, 1-(4-((1r,3r)-3-(8-(4-chlorophenyl)-2-imino-3-methyl-2,3-dihydro-1H-imidazo[4,5-c]quinolin-1-yl)cyclobutyl)piperazin-1-yl)ethan-1-one]
- Papp (PAMPA permeability; Table 1): 4.6 ×10⁻⁶ cm/s
- EC50 ([1]; Table 1): 12700 nM
- solubility (Solubility pH 7.4; Table 1): > 48 µg/mL
- half-life [2, 4]: > 30 min

SMILES: Cn1c(=N)n(-c2ccccc2O)c2c3cc(-c4ccc(Cl)cc4)ccc3ncc21 [Compound 83, 2-(8-(4-chlorophenyl)-2-imino-3-methyl-2,3-dihydro-1H-imidazo[4,5-c]quinolin-1-yl)phenol]
- Papp (PAMPA permeability; Table 1): 859 ×10⁻⁶ cm/s
- EC50 ([1]; Table 1): 593 nM
- solubility (Solubility pH 7.4; Table 1): < 1 µg/mL

SMILES: Cc1ccc(C(N)=O)cc1-n1c(=N)n(C)c2cnc3ccc(-c4ccc(Cl)cc4)cc3c21 [Compound 92, 3-(8-(4-chlorophenyl)-2-imino-3-methyl-2,3-dihydro-1H-imidazo[4,5-c]quinolin-1-yl)-4-methylbenzamide]
- Papp (PAMPA permeability; Table 1): 2 ×10⁻⁶ cm/s
- solubility (Solubility pH 7.4; Table 1): > 44 µg/mL
- half-life [2, 4]: > 30 min

SMILES: Cc1cc(N2CCN(C)CC2)c(C#N)cc1-n1c(=N)n(C)c2cnc3ccc(-c4cccc(F)c4)cc3c21 [Compound 144, 5-(8-(3-fluorophenyl)-2-imino-3-methyl-2,3-dihydro-1H-imidazo[4,5-c]quinolin-1-yl)-4-methyl-2-(4-methylpiperazin-1-yl)benzonitrile]
- EC50 ([1]; Table 1): 159 nM
- solubility (Solubility pH 7.4; Table 1): > 50 µg/mL
- half-life [2, 4]: > 30 min
